Key:
Format in all cases: in vivo
[1] = tested on: Abutilon theophrasti; assay: Pre-emergence herbicidal action, ABUTH; conditions: dosage 320 g/ha, scored visually after 3 weeks vs untreated controls (100% = plants have died)
Method in brief: (§1)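 Pre-emergence soil spray over sandy loam-covered seeds; greenhouse 3 weeks; % visual damage (0% = control, 100% = dead).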

[2] = tested on: Echinochloa crus-galli; assay: Pre-emergence herbicidal action, ECHCG; conditions: dosage 320 g/ha, scored visually after 3 weeks vs untreated controls (100% = plants have died)
Method in brief: as §1

[3] = tested on: Avena fatua; assay: Post-emergence herbicidal action, AVEFA; set-up: key: % herbicidal action vs untreated; 100 = plants died, 0 = like control
Method in brief: (§2)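 Greenhouse post-emergence test: weeds sown in sandy loam were sprayed once at one leaf, 2 to 3 weeks from sowing, with aqueous WP or EC preparations carrying 0.2% wetting agent. Effect is scored visually after about 3 weeks.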

[4] = tested on: Matricaria inodora; assay: Post-emergence herbicidal action, MATIN; set-up: key: % herbicidal action vs untreated; 100 = plants died, 0 = like control
Method in brief: as §2

[5] = tested on: Polygonum convolvulus; assay: Post-emergence herbicidal action, POLCO
Method in brief: as §2

[6] = tested on: Veronica persica; assay: Post-emergence herbicidal action, VERPE; set-up: key: % herbicidal action vs untreated; 100 = plants died, 0 = like control
Method in brief: as §2

## CCn1nnnc1NC(=O)c1ccc(C(F)(F)F)c(CSC)c1SC [Example 2-161]
[1]
  herbicidal activity ABUTH: 100%
[2]
  herbicidal activity ECHCG: 100%
[3]; post-emergence, dosage 80 g/ha
  herbicidal action AVEFA: 90%
[4]; post-emergence, dosage 80 g/ha
  herbicidal action MATIN: 100%
[5]; post-emergence, dosage 80 g/ha
  herbicidal action POLCO: 100%
[6]; post-emergence, dosage 80 g/ha
  herbicidal action VERPE: 100%

## CCn1nnnc1NC(=O)c1ccc(C(F)(F)F)c(CS(C)(=O)=O)c1SC [Example 2-163]
[1]
  herbicidal activity ABUTH: 100%
[2]
  herbicidal activity ECHCG: 100%
[3]; Dosage 80 g/ha
  herbicidal action AVEFA: 100
[4]; Dosage 80 g/ha
  herbicidal action MATIN: 100
[5]; Dosage 80 g/ha
  herbicidal action POLCO: 90
[6]; Dosage 80 g/ha
  herbicidal action VERPE: 100

## CCn1nnnc1NC(=O)c1ccc(C(F)(F)F)c(CSC)c1Br [Example 2-380]
[1]
  herbicidal activity ABUTH: 100%
[2]
  herbicidal activity ECHCG: 100%
[3]; post-emergence, dosage 80 g/ha
  herbicidal action AVEFA: 100%
[4]; post-emergence, dosage 80 g/ha
  herbicidal action MATIN: 100%
[5]; post-emergence, dosage 80 g/ha
  herbicidal action POLCO: 90%
[6]; post-emergence, dosage 80 g/ha
  herbicidal action VERPE: 100%

## CCn1nnnc1NC(=O)c1ccc(C(F)(F)F)c(C[S+](C)[O-])c1Br (stereo not drawn) [Example 2-381]
[1]
  herbicidal activity ABUTH: 100%
[2]
  herbicidal activity ECHCG: 100%
[3]; post-emergence, dosage 80 g/ha
  herbicidal action AVEFA: 100%
[4]; post-emergence, dosage 80 g/ha
  herbicidal action MATIN: 90%
[5]; post-emergence, dosage 80 g/ha
  herbicidal action POLCO: 90%
[6]; post-emergence, dosage 80 g/ha
  herbicidal action VERPE: 100%

## CCSCc1c(C(F)(F)F)ccc(C(=O)Nc2nnnn2CC)c1Br [Example 2-383]
[1]
  herbicidal activity ABUTH: 100%
[2]
  herbicidal activity ECHCG: 100%
[3]; post-emergence, dosage 80 g/ha
  herbicidal action AVEFA: 100%
[4]; post-emergence, dosage 80 g/ha
  herbicidal action MATIN: 100%
[5]; post-emergence, dosage 80 g/ha
  herbicidal action POLCO: 90%
[6]; post-emergence, dosage 80 g/ha
  herbicidal action VERPE: 100%

## CCCn1nnnc1NC(=O)c1ccc(C(F)(F)F)c(CS(=O)(=O)CC)c1C [Example 3-88]
[1]
  herbicidal activity ABUTH: 100%
[2]
  herbicidal activity ECHCG: 100%
[3]; Dosage 80 g/ha
  herbicidal action AVEFA: 80
[4]; Dosage 80 g/ha
  herbicidal action MATIN: 90
[5]; Dosage 80 g/ha
  herbicidal action POLCO: 90
[6]; Dosage 80 g/ha
  herbicidal action VERPE: 90

## CCCn1nnnc1NC(=O)c1ccc(C(F)F)c(CSC)c1C [Example 3-107]
[1]
  herbicidal activity ABUTH: 100%
[2]
  herbicidal activity ECHCG: 100%
[3]; Dosage 80 g/ha
  herbicidal action AVEFA: 80
[4]; Dosage 80 g/ha
  herbicidal action MATIN: 90
[5]; Dosage 80 g/ha
  herbicidal action POLCO: 90
[6]; Dosage 80 g/ha
  herbicidal action VERPE: 100

## CCCn1nnnc1NC(=O)c1ccc(C(F)(F)F)c(CSC)c1OC [Example 3-134]
[1]
  herbicidal activity ABUTH: 100%
[2]
  herbicidal activity ECHCG: 100%
[3]; Dosage 80 g/ha
  herbicidal action AVEFA: 90
[4]; Dosage 80 g/ha
  herbicidal action MATIN: 100
[5]; Dosage 80 g/ha
  herbicidal action POLCO: 90
[6]; Dosage 80 g/ha
  herbicidal action VERPE: 100

## CCCn1nnnc1NC(=O)c1ccc(C(F)(F)F)c(C[S+](C)[O-])c1Cl (stereo not drawn) [Example 3-297]
[1]
  herbicidal activity ABUTH: 100%
[2]
  herbicidal activity ECHCG: 100%
[3]; post-emergence, dosage 80 g/ha
  herbicidal action AVEFA: 100%
[4]; post-emergence, dosage 80 g/ha
  herbicidal action MATIN: 100%
[5]; post-emergence, dosage 80 g/ha
  herbicidal action POLCO: 80%
[6]; post-emergence, dosage 80 g/ha
  herbicidal action VERPE: 100%

## CCCn1nnnc1NC(=O)c1ccc(C(F)(F)F)c(CSCC)c1Cl [Example 3-299]
[1]
  herbicidal activity ABUTH: 100%
[2]
  herbicidal activity ECHCG: 100%
[3]; Dosage 80 g/ha
  herbicidal action AVEFA: 80
[4]; Dosage 80 g/ha
  herbicidal action MATIN: 100
[5]; Dosage 80 g/ha
  herbicidal action POLCO: 80
[6]; Dosage 80 g/ha
  herbicidal action VERPE: 100

## CCCn1nnnc1NC(=O)c1ccc(C(F)F)c(CSC)c1Cl [Example 3-320]
[1]
  herbicidal activity ABUTH: 100%
[2]
  herbicidal activity ECHCG: 100%
[3]; Dosage 80 g/ha
  herbicidal action AVEFA: 90
[4]; Dosage 80 g/ha
  herbicidal action MATIN: 100
[5]; Dosage 80 g/ha
  herbicidal action POLCO: 90
[6]; Dosage 80 g/ha
  herbicidal action VERPE: 100

## CCCn1nnnc1NC(=O)c1ccc(C(F)(F)F)c(CSC)c1Br [Example 3-380]
[1]
  herbicidal activity ABUTH: 100%
[2]
  herbicidal activity ECHCG: 100%
[3]; Dosage 80 g/ha
  herbicidal action AVEFA: 100
[4]; Dosage 80 g/ha
  herbicidal action MATIN: 100
[5]; Dosage 80 g/ha
  herbicidal action POLCO: 90
[6]; Dosage 80 g/ha
  herbicidal action VERPE: 80

## CCCn1nnnc1NC(=O)c1ccc(C(F)(F)F)c(C[S+](C)[O-])c1Br (stereo not drawn) [Example 3-381]
[1]
  herbicidal activity ABUTH: 100%
[2]
  herbicidal activity ECHCG: 100%
[3]; post-emergence, dosage 80 g/ha
  herbicidal action AVEFA: 100%
[4]; post-emergence, dosage 80 g/ha
  herbicidal action MATIN: 90%
[5]; post-emergence, dosage 80 g/ha
  herbicidal action POLCO: 80%
[6]; post-emergence, dosage 80 g/ha
  herbicidal action VERPE: 100%

## CCCn1nnnc1NC(=O)c1ccc(C(F)(F)F)c(CSCC)c1Br [Example 3-383]
[1]
  herbicidal activity ABUTH: 100%
[2]
  herbicidal activity ECHCG: 100%
[3]; Dosage 80 g/ha
  herbicidal action AVEFA: 90
[4]; Dosage 80 g/ha
  herbicidal action MATIN: 100
[5]; Dosage 80 g/ha
  herbicidal action POLCO: 90
[6]; Dosage 80 g/ha
  herbicidal action VERPE: 100

Source: patent US12492173B2, “Herbicidal substituted N-tetrazolyl aryl carboxamides” (Bayer Aktiengesellschaft, priority 2019, dated 2025)
